Read-outs that look alike come from different tables or passages of the source.
Tests used:
[1] = system: metabolically active cells; test: Cell viability luminescence assay; format: cell-based; details: 24 hours incubation
Method: Compound toxicity was measured in a luminescence assay that gives a signal proportional to the amount of metabolically active cells in the sample; the assay was performed as described by the supplier. All synthesized compounds were tested in the viability assay, and viability was registered at 24 hours and 72 hours.

[2] = system: PLB-Ser^16 phosphorylation; test: PLB-Ser16 phosphorylation in isoproterenol-stimulated rat neonatal cardiomyocytes (western blot); format: cell-based; details: for Effect on PLB phosphorylation in cardiomyocytes / effect on PLB phosphorylation: rat neonatal cardiomyocytes; for Effect on PLB phosphorylation in cardiomyocytes: compounds 24 hours prior isoproterenol (100 nM, 5 minutes); for IC50: Rattus norvegicus, Cardiomyocyte, read-out: half-maximal effect, inhibition of phospholamban phosphorylation; for effect on PLB phosphorylation: Example 53
Method: FIG. 7: Disruption of the AKAP18δ-PLB complex influences PLB-Ser^16 phosphorylation. Rat neonatal cardiomyocytes treated with compounds 24 hours prior stimulation with isoproterenol (100 nM, 5 minutes).
(§1) FIG. 9: Disruption of the AKAP18δ-PLB complex influences PLB-Ser^16 phosphorylation. Rat neonatal cardiomyocytes treated with compound 2g (A) or 3d (C) 24 hours prior stimulation with isoproterenol (100 nM, 5 minutes). Rat adult cardiomyocytes treated with compound 2g (B) 1 hour prior to stimulation with isoproterenol (10 nM, 5 minutes). The histograms show levels of phosphorylated Ser^16-PLB quantified by densitometry on Western blots (relative to actin levels).
Based on data from studies in cardiomyocytes assay using a peptide that blocks AKAP18δ-PLB interaction, it was expected that effective compounds would also cause disruption of the AKAP18δ-PLB complex and decrease PLB-Ser^16 phosphorylation (Lygren et al. in EMBO Reports, volume 8, issue 11, page 1061-1067 (2007). A small selection of hits from the derivatized compounds were tested in this cell-based assay, performed as described in Lygren et al.
Briefly, compounds were added to primary cultures of rat neonatal cardiomyocytes were added compounds about 24 hour prior stimulation with isoproterenol, and amount of phosphorylated Ser^16-PLB was analyzed by western blotting using a pSer^16-PLB phosphospecific antibody. Actin was used as a loading control.
Rat neonatal cardiomyocytes treated with compounds 24 hours prior stimulation with isoproterenol (100 nM, 5 minutes).

SERCA2 = SERCA2 (Rattus norvegicus (Rat), UniProt P11507); test: Patch clamp based SERCA2 activity assay in intact adult rat cardiomyocytes; details: 10 uM mesylate salt, cell dialysis in the presence of cAMP, preliminary data
Method: FIG. 10: Compound 2g regulates SERCA2-activity. A novel patch clamp based technique was performed to directly assess SERCA-activity independently of receptor stimulation in intact cardiomyocytes. By dialyzing cardiomyocytes with a fixed level of cAMP with and without presence of compound 2g, preliminary data indicates ability of compound 2g to regulate SERCA2-activity in intact adult cardiomyocytes.
Adult rat cardiomyocytes were isolated and perfused with external solution (NaCl-125, CsCl 20, D-glucose 5, MgCl2 1, CaCl2 1.8, Hepes 10, 4-aminopyridine 5, probenecid 2, pH 7.4 by NaOH). […] Whole-cell Ca fluorescence measured from voltage-clamped cells was performed with Cairn Research Optoscan Monochromator (Excitation 488 nm, emission 515 nm long pass) (Cain Research Ltd., Faverham, UK). By applying 100 ms square voltage step from −45 to 0 mV at 0.125 Hz by an Axoclamp 2B amplifier (Axon Instruments, Foster City, Calif., USA), basal Ca transients were recorded, and tau values were obtained by monoexponential fitting of the Ca^2+ extrusion phase from regular transients (τ) and caffeine transients (τcaff) after rapid applications of 10 mM caffeine. SERCA2 rate constant were calculated as: k_SERCA=1/τ−1/τcaff.

[3] = system: PLB-Ser^16 phosphorylation; test: PLB-Ser16 phosphorylation in isoproterenol-stimulated rat adult cardiomyocytes; format: cell-based; details: Cardiomyocyte, 1 hour prior isoproterenol (10 nM, 5 minutes), read-out: half-maximal effect, inhibition of phospholamban phosphorylation
Method: as §1
Following on Example 53, two compounds, 2g and 3d (FIGS. 9A.B and 9C, respectively), were tested in more detail for their ability to interfere with phosphorylation of phospholamban after stimulation of neonatal (FIGS. 9A and 9C) or adult (FIG. 9B) primary cultures of cardiomyocytes.

[4] = Aqueous solubility of free bases and various salts by dissolution at room temperature; format: physicochemical; details: water, thermodynamic from solid
Method: The aqueous solubility of various amine compounds and their corresponding salts were determined by dissolution of various amounts of the respective compounds at room temperature.

[5] = Aqueous solubility of tribenzylamine and salts quantified by HPLC (AUC); format: physicochemical; details: HPLC area under curve
Method: Tribenzylamine and the corresponding salts were dissolved in water and the solubility was quantified (area under curve (AUC)) by HPLC
Solubility of Tribenzylamine and its Corresponding HCl and Mesylate Salts, Tested on HPLC.

[6] = 24 hours prior isoproterenol (100 nM, 5 minutes)
[7] = HCl salt, read-out: Solubility HCl salt
[8] = free base, read-out: Solubility free base
[9] = mesylate salt, read-out: Solubility Mesylate salt

Row | SMILES | Viability (100 μM) 24 hours [1] | solubility [4, 7] | solubility [4, 8] | solubility [4, 9] | also measured
1 | Fc1ccc(CN(Cc2ccncc2)Cc2ccc(F)cc2)cc1 [Compound 2a, N,N-bis(4-fluorobenzyl)-1-(pyridin-4-yl)methanamine] | 0.85 |  |  |  | 
2 | Oc1ccc(O)c(CN(Cc2ccncc2)Cc2cc(O)ccc2O)c1 [Compound 2b, 2,2′-(((pyridin-4-ylmethyl)azanediyl)bis(methylene))bis(benzene-1,4-diol)] | 0.10 |  |  |  | Effect on PLB phosphorylation in cardiomyocytes [2]: −
3 | Fc1ccc(CN(Cc2ccc(F)cc2)Cc2nccs2)cc1 [Compound 2c, N,N-bis(4-fluorobenzyl)-1-(thiazol-2-yl)methanamine] | 1.11 |  |  |  | 
4 | COc1ccc(CN(Cc2ccc(OC)cc2)Cc2nccs2)cc1 [Compound 2d, N,N-bis(4-methoxybenzyl)-1-(thiazol-2-yl)methanamine] | 1.15 |  |  |  | 
5 | COc1ccc(CN(Cc2ccccc2)Cc2ccc(OC)cc2)cc1 [Compound 2e, N-benzyl-N-(4-methoxybenzyl)-1-(4-methoxyphenyl)methanamine] | 1.01 |  |  |  | 
6 | COC(=O)c1ccc(CN(Cc2ccccc2)Cc2ccc(C(=O)OC)cc2)cc1 [Compound 2f, dimethyl 4,4′-((benzylazanediyl)bis(methylene))dibenzoate] | 0.92 |  |  |  | 
7 | CN(C)c1ccc(CN(Cc2ccccc2)Cc2ccc(N(C)C)cc2)cc1 [Compound 2g, 4-((benzyl(4-(dimethylamino)benzyl)amino)methyl)-N,N-dimethylaniline] | 0.56 |  |  |  | SERCA2 activity (SERCA2): increased SERCA2 activity; IC50 [2]: ~40 µM; effect on PLB phosphorylation [2, 6]: concentration dependent inhibition of PLB-phosphorylation; Effect on PLB phosphorylation in cardiomyocytes [2]: ++; IC50 [3]: ~100 µM
8 | CC(c1ccccc1)N(Cc1ccc(N(C)C)cc1)Cc1ccc(N(C)C)cc1 (stereo not shown) [Compound 2h, 4-(((4-(dimethylamino)benzyl)(1-phenylethyl)amino)methyl)-N,N-dimethylaniline] | 0.91 |  |  |  | 
9 | CC(C)(C)c1ccc(CN(Cc2ccncc2)Cc2ccc(F)cc2)cc1 [Compound 3a, N-(4-(tert-butyl)benzyl)-N-(4-fluorobenzyl)-1-(pyridin-4-yl)methanamine] | 0.79 |  |  |  | 
10 | Oc1ccc(O)c(CN(Cc2ccncc2)Cc2ccc(F)cc2)c1 [Compound 3b, 2-(((4-fluorobenzyl)(pyridin-4-ylmethyl)amino)methyl)benzene-1,4-diol] | 0.03 |  |  |  | 
11 | CN(C)c1ccc(CN(Cc2ccccc2)CC(c2ccccc2)c2ccccc2)cc1 [Compound 3c, 4-((benzyl(2,2-diphenylethyl)amino)methyl)-N,N-dimethylaniline] | 0.74 |  |  |  | effect on PLB phosphorylation [2, 6]: somewhat weaker than that of 2g; Effect on PLB phosphorylation in cardiomyocytes [2]: +
12 | CN(C)c1ccc(CN(Cc2ccccc2)Cc2ccc3c(c2)CCO3)cc1 [Compound 3d] | 0.58 |  |  |  | IC50 ([2]; neonatal cardiomyocytes, 24 hours prior isoproterenol (100 nM, 5 minutes)): ~100 µM; effect on PLB phosphorylation [2, 6]: did not appear to have an effect; Effect on PLB phosphorylation in cardiomyocytes [2]: −
13 | COC(=O)c1ccc(CN(Cc2ccccc2)Cc2ccc(F)cc2)cc1 [Compound 3e, methyl 4-((benzyl(4-fluorobenzyl)amino)methyl)benzoate] | 0.57 |  |  |  | 
14 | O=C(O)c1ccc(CN(Cc2ccccc2)Cc2ccc(F)cc2)cc1 [Compound 3f, 4-((benzyl(4-fluorobenzyl)amino)methyl)benzoic acid] | 0.98 |  |  |  | effect on PLB phosphorylation [2, 6]: did not appear to have an effect; Effect on PLB phosphorylation in cardiomyocytes [2]: +
15 | Fc1ccc(CN(Cc2ccccc2)Cc2ccc(-c3ccccc3-c3nn[nH]n3)cc2)cc1 [Compound 3g, 1-(2′-(2H-tetrazol-5-yl)-[1,1′-biphenyl]-4-yl)-N-benzyl-N-(4-fluorobenzyl)methanamine] | 0.80 |  |  |  | 
16 | COC(=O)c1ccc(CN(Cc2ccccc2)Cc2ccc(C(=O)OC)cc2)cc1 [Compound 17, dimethyl 4,4′-((benzylazanediyl)bis(methylene))dibenzoate] |  | < 360 µg/mL | < 360 µg/mL | < 360 µg/mL | 
17 | O=C(O)c1ccc(CN(Cc2ccccc2)Cc2ccc(C(=O)O)cc2)cc1 [Compound 18] |  | < 50 µg/mL | < 50 µg/mL | < 50 µg/mL | 
18 | CC(C)(C)c1ccc(CN(Cc2ccccc2)Cc2ccc(C(C)(C)C)cc2)cc1 [Compound 19, N-benzyl-N-(4-(tert-butyl)benzyl)-1-(4-(tert-butyl)phenyl)methanamine] |  | < 50 µg/mL | < 50 µg/mL | < 50 µg/mL | 
19 | O=[N+]([O-])c1ccc(CN(Cc2ccccc2)Cc2ccc([N+](=O)[O-])cc2)cc1 [Compound 20, N-benzyl-N-(4-nitrobenzyl)-1-(4-nitrophenyl)methanamine] |  | < 3000 µg/mL | < 3000 µg/mL | < 3000 µg/mL | 
20 | Nc1ccc(CN(Cc2ccccc2)Cc2ccc(N)cc2)cc1 [Compound 22, 4-(((4-aminobenzyl)(benzyl)amino)methyl)aniline] |  | 4500 µg/mL | < 50 µg/mL | > 22000 µg/mL | 
21 | CCN(CC)c1ccc(CN(Cc2ccccc2)Cc2ccc(N(CC)CC)cc2)cc1 [Compound 23, 4-((benzyl(4-(diethylamino)benzyl)amino)methyl)-N,N-diethylaniline] |  | 15000 µg/mL | < 50 µg/mL | > 34000 µg/mL | 
22 | Cc1ccc(NC(=O)Nc2ccc(CN(Cc3ccccc3)Cc3ccc(NC(=O)Nc4ccc(C)cc4)cc3)cc2)cc1 [Compound 25, 1,1′-(((benzylazanediyl)bis(methylene))bis(4,1-phenylene))bis(3-(p-tolyl)urea)] |  | < 50 µg/mL | < 50 µg/mL | < 50 µg/mL | 
23 | O=C(Nc1ccc(F)cc1)Nc1ccc(CN(Cc2ccccc2)Cc2ccc(NC(=O)Nc3ccc(F)cc3)cc2)cc1 [Compound 26, 1,1′-(((benzylazanediyl)bis(methylene))bis(4,1-phenylene))bis(3-(4-fluorophenyl)urea)] |  | < 1500 µg/mL | < 1500 µg/mL | < 1500 µg/mL | 
24 | O=C(Nc1ccccc1)Nc1ccc(CN(Cc2ccccc2)Cc2ccc(NC(=O)Nc3ccccc3)cc2)cc1 [Compound 27, 1,1′-(((benzylazanediyl)bis(methylene))bis(4,1-phenylene))bis(3-phenylurea)] |  | < 500 µg/mL | < 500 µg/mL | < 500 µg/mL | 
25 | CN(C)c1ccc(CN(Cc2ccccc2)Cc2ccc(N(C)C)cc2)cc1 [Compound 29, 4-((benzyl(4-(dimethylamino)benzyl)amino)methyl)-N,N-dimethylaniline] |  | 6000 µg/mL | < 160 µg/mL | 94000 µg/mL | 
26 | c1ccc(CN(Cc2ccccc2)Cc2ccccc2)cc1 [Tribenzylamine] |  |  |  |  | AUC HCl salt ([5]; HCl salt dissolved in water): 406 mAu*s; AUC Free base ([5]; free base dissolved in water): ≈0 mAu*s; AUC Mesylate salt ([5]; mesylate salt dissolved in water): 1975 mAu*s

— patent US9556111B2, “Tertiary amines for use in the treatment of cardiac disorders” (Universitetet I Oslo, priority 2012, dated 2017)
